# Patent US4822790A, “1-Sulfo-2-oxoazetidine derivatives and their production” (Takeda Chemical Industries, Ltd., priority 1980, dated 1989)
# Key:
# Type in all cases: cell-based
# Escherichia coli 0-111 = assay: Antibacterial test (MIC), Escherichia coli 0-111; details: medium TSA
# Source text: (§1) The following is media and compounds employed in the antibacterial test.
# (§2) TSA=Trypticase soy agar [Baltimore Biologicals (U.S.A.)]
# (§3) B-TSA=Blood trypticase soy agar
# [1] = system: Staphylococcus aureus 308A-1; assay: Antibacterial test (MIC), Staphylococcus aureus 308A-1; details: medium TSA
# Source text: as §1, §2, §3
# Escherichia coli T-7 = assay: Antibacterial test (MIC), Escherichia coli T-7; details: medium TSA
# Source text: as §1, §2, §3
# [2] = system: Streptococcus mitis America; assay: Antibacterial test (MIC), Streptococcus mitis America; details: medium B-TSA
# Source text: as §1, §2, §3
# [3] = system: Streptococcus pyogenes E-14; assay: Antibacterial test (MIC), Streptococcus pyogenes E-14; details: medium B-TSA
# Source text: as §1, §2, §3
# [4] = system: Streptococcus pneumoniae Type I; assay: Antibacterial test (MIC), Streptococcus pneumoniae Type I; details: medium B-TSA
# Source text: as §1, §2, §3
# [5] = system: Bordetella bronchiseptica Sagami; assay: Antibacterial test (MIC), Bordetella bronchiseptica Sagami; details: medium B-TSA
# Source text: as §1, §2, §3
# [6] = system: Escherichia coli NIHJ JC-2; assay: Antibacterial test (MIC), Escherichia coli NIHJ JC-2; details: medium TSA
# Source text: as §1, §2, §3
# Klebsiella pneumoniae DT = assay: Antibacterial test (MIC), Klebsiella pneumoniae DT; details: medium TSA
# Source text: as §1, §2, §3
# [7] = system: Streptococcus faecium IFO 3128; assay: Antibacterial test (MIC), Streptococcus faecium IFO 3128; details: medium B-TSA
# Source text: as §1, §2, §3
# [8] = system: Staphylococcus aureus 1840; assay: Antibacterial test (MIC), Staphylococcus aureus 1840; details: medium TSA
# Source text: as §1, §2, §3
# [9] = system: Enterobacter cloacae IFO 12937; assay: Antibacterial test (MIC), Enterobacter cloacae IFO 12937; details: medium TSA
# Source text: as §1, §2, §3
# [10] = system: Corynebacterium diphtheriae Toronto; assay: Antibacterial test (MIC), Corynebacterium diphtheriae Toronto; details: medium B-TSA
# Source text: as §1, §2, §3
# [11] = system: Pseudomonas aeruginosa U 31; assay: Antibacterial test (MIC), Pseudomonas aeruginosa U 31; details: medium TSA
# Source text: as §1, §2, §3
# [12] = system: Proteus morganii IFO 3168; assay: Antibacterial test (MIC), Proteus morganii IFO 3168; details: medium TSA
# Source text: as §1, §2, §3
# Candida albicans TA = assay: Antibacterial test (MIC), Candida albicans TA; details: medium TSA
# Source text: as §1, §2, §3
# [13] = system: Proteus mirabilis IFO 3849; assay: Antibacterial test (MIC), Proteus mirabilis IFO 3849; details: medium TSA
# Source text: as §1, §2, §3
# [14] = system: Staphylococcus aureus FDA209P; assay: Antibacterial test (MIC), Staphylococcus aureus FDA209P
# Source text: as §1, §2, §3
# [15] = system: Citrobacter freundii IFO 12681; assay: Antibacterial test (MIC), Citrobacter freundii IFO 12681; details: medium TSA
# Source text: as §1, §2, §3
# [16] = system: Streptococcus pyogenes S-8; assay: Antibacterial test (MIC), Streptococcus pyogenes S-8; details: medium B-TSA
# Source text: as §1, §2, §3
# [17] = system: Pseudomonas aeruginosa IFO 3455; assay: Antibacterial test (MIC), Pseudomonas aeruginosa IFO 3455; details: medium TSA
# Source text: as §1, §2, §3
# [18] = system: Proteus vulgaris IFO 3988; assay: Antibacterial test (MIC), Proteus vulgaris IFO 3988; details: medium TSA
# Source text: as §1, §2, §3
# [19] = system: Serratia marcescens IFO 12648; assay: Antibacterial test (MIC), Serratia marcescens IFO 12648; details: medium TSA
# Source text: as §1, §2, §3
# [20] = system: Acinetobacter calcoaceticus IFO 13006; assay: Antibacterial test (MIC), Acinetobacter calcoaceticus IFO 13006; details: medium TSA
# Source text: as §1, §2, §3
# [21] = system: Klebsiella pneumoniae TN 1711; assay: MIC by agar dilution method (Experiment C), Klebsiella pneumoniae TN 1711; details: TN1711, Trypticase Soy agar, about 10^8 CFU/ml, 37° C. overnight, read-out: Minimal inhibitory concentration (MIC)
# Procedure: (§4) The tables given below set forth the minimal inhibitory concentrations (MIC) of some typical compounds [I]C as obtained in the working examples. The minimal inhibitory concentrations of the tested compounds are determined by the agar dilution method. Namely, 1.0 ml. of aqueous solution of the tested compounds diluted by serial dilutions is poured into test petri dish. Subsequently 9.0 ml. of Trypticase Soy agar is poured into the dish and mixed. On the mixed agar plate, one loopful of bacterial suspension (about 10^8 CFU/ml.) of test microorganism is streaked. After the incubation at 37° C. overnight, the lowest concentration of the tested compounds which cause apparently complete inhibition of growth of the test microorganism is taken to be minimal inhibitory concentration. (2) Klebsiella pneumoniae TN 1711
# [22] = system: Enterobacter cloacae IFO 12937; assay: MIC by agar dilution method (Experiment C), Enterobacter cloacae IFO 12937; details: IFO12937, Trypticase Soy agar, about 10^8 CFU/ml, 37° C. overnight, read-out: Minimal inhibitory concentration (MIC)
# Procedure: as §4, with “(1) Enterobacter cloacae IFO 12937” for “(2) Klebsiella pneumoniae TN 1711”
smiles,measurement,setting,value
"CCN1CCN(C(=O)NC(C(=O)NC2CN(S(=O)(=O)[O-])C2=O)c2cccs2)C(=O)C1=O.[Na+] (racemic) [Compound E, Sodium 3-[DL-2-(4-ethyl-2,3-dioxo-1-piperazinocarboxamido)-2-thienylacetamido]-2-oxoazetidine-1-sulfonate]",Minimum inhibitory concentration (MIC),Escherichia coli 0-111,0.2 µg/mL
same,Minimum inhibitory concentration (MIC),[1],6.25 µg/mL
same,Minimum inhibitory concentration (MIC),Escherichia coli T-7,> 100 µg/mL
same,Minimum inhibitory concentration (MIC),[2],25 µg/mL
same,Minimum inhibitory concentration (MIC),[3],1.56 µg/mL
same,Minimum inhibitory concentration (MIC),[4],3.13 µg/mL
same,Minimum inhibitory concentration (MIC),[5],> 100 µg/mL
same,Minimum inhibitory concentration (MIC),[6],1.56 µg/mL
same,Minimum inhibitory concentration (MIC),Klebsiella pneumoniae DT,0.78 µg/mL
same,Minimum inhibitory concentration (MIC),[7],> 100 µg/mL
same,Minimum inhibitory concentration (MIC),[8],25 µg/mL
same,Minimum inhibitory concentration (MIC),[9],3.13 µg/mL
same,Minimum inhibitory concentration (MIC),[10],0.39 µg/mL
same,Minimum inhibitory concentration (MIC),[11],> 100 µg/mL
same,Minimum inhibitory concentration (MIC),[12],12.5 µg/mL
same,Minimum inhibitory concentration (MIC),Candida albicans TA,> 100 µg/mL
same,Minimum inhibitory concentration (MIC),[13],0.78 µg/mL
same,Minimum inhibitory concentration (MIC),[14]; medium B-TSA,6.25 µg/mL
same,Minimum inhibitory concentration (MIC),[14]; medium TSA,6.25 µg/mL
same,Minimum inhibitory concentration (MIC),[15],3.13 µg/mL
same,Minimum inhibitory concentration (MIC),[16],3.13 µg/mL
same,Minimum inhibitory concentration (MIC),[17],3.13 µg/mL
same,Minimum inhibitory concentration (MIC),[18],< 0.1 µg/mL
same,Minimum inhibitory concentration (MIC),[19],3.13 µg/mL
same,Minimum inhibitory concentration (MIC),[20],50 µg/mL
"CC(C)(O/N=C(\C(=O)N[C@H]1C(=O)N(S(=O)(=O)O)[C@@H]1C(N)=O)c1csc(N)n1)C(=O)O (relative stereo) [Example No. 144C, trans-3-[2-(2-amino-4-thiazolyl)-2-(1-methyl-1-carboxyethyloxyimino)acetamido]-4-carbamoyl-2-oxoazetidine-1-sulfonic acid (syn-isomer)]",MIC,[21],3.13 µg/mL
same,MIC,[22],6.25 µg/mL
"CC(=O)NC[C@H]1[C@@H](NC(=O)/C(=N\OC(C)(C)C(=O)O)c2csc(N)n2)C(=O)N1S(=O)(=O)O (relative stereo) [Example No. 147C, cis-3-[2-(2-amino-4-thiazolyl)-2-(1-methyl-1-carboxyethyloxyimino)acetamido]-4-acetamidomethyl-2-oxoazetidine-1-sulfonic acid (syn-isomer)]",MIC,[21],0.39 µg/mL
same,MIC,[22],3.13 µg/mL
"COC(=O)C[C@@H]1[C@@H](NC(=O)/C(=N\OC(C)(C)C(=O)O)c2csc(N)n2)C(=O)N1S(=O)(=O)O (relative stereo) [Example No. 158C, trans-3-[2-(2-amino-4-thiazolyl)-2-(1-methyl-1-carboxyethyloxyimino)acetamido]-4-methoxycarbonylmethyl-2-oxo-azetidine-1-sulfonic acid (syn-isomer)]",MIC,[21],6.25 µg/mL
same,MIC,[22],3.13 µg/mL
